From ChEMBL document CHEMBL1153260, “The synthesis of aminobenzazepinones as anti-phenylalanine dipeptide mimics and their use in nep inhibition” (Bioorg Med Chem Lett, 1996) come the findings set out here.

In general, pKi refers to −log10 of the Ki, conventionally taken in molar units.

For this assay, the target named is T1, Neprilysin (Rattus norvegicus, UniProt P07861).
T1 sequence (P07861 whole entry): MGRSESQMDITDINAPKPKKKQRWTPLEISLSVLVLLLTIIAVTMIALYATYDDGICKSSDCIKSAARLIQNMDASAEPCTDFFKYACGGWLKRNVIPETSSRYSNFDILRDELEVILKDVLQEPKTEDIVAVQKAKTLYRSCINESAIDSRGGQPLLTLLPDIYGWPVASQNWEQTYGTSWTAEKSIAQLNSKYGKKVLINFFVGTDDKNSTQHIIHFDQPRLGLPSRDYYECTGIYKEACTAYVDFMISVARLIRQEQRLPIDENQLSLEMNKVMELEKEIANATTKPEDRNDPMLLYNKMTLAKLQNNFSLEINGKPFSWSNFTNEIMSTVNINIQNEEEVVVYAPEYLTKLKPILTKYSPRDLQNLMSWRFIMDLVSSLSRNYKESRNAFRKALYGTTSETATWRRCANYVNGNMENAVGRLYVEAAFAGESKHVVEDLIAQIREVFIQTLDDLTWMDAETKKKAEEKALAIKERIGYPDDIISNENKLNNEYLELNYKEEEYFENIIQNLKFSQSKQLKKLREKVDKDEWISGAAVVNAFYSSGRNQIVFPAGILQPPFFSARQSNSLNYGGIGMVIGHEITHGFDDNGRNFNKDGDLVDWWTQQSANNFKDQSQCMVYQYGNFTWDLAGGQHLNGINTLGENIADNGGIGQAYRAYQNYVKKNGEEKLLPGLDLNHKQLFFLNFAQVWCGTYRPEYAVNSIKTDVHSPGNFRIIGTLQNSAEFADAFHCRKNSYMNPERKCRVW
Kind of assay: Compound was tested for inhibition of neutral endopeptidase (NEP).

pKi: −log10 of the molar value.

In the case of `CC(C)CC(C(=O)O)N1CCO[C@@H](c2ccccc2)[C@H](NC(=O)[C@H](S)Cc2ccccc2)C1=O` (single isomer, unassigned), the pKi was 6.48.
As for `CC(C)C[C@@H](C(=O)O)N1Cc2ccccc2C[C@H](NC(=O)[C@H](S)Cc2ccccc2)C1=O`, the pKi was 9.40. This pKi lies 2.92 log units higher than the previous one.
With `O=C(O)C1CCCC2c3ccccc3C[C@H](NC(=O)[C@H](S)Cc3ccccc3)C(=O)N12` (stereo partly drawn), the pKi is 10.15.
